According to article PMC9944328 (Nature Communications, 2023):
Several values for one entry are separate records, joined by “and”; a condition that tells them apart may be missing. Equal entries are not always repeated.

Target: SSTR2 (Homo sapiens, UniProt P30874)
Assay: SSTRs Gi-mediated cAMP inhibition, GloSensor, HEK293, 5 μM forskolin, 15 min room temperature (SSTR2 wild-type);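 as to Bottom (best-fit value): normalized to the maximal wild-type response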;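 as to Bottom (best-fit): normalized to the maximal wild-type response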;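 as to Span (best-fit value), cAMP inhibition: normalized to the maximal wild-type response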;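 as to Span (best-fit value): normalized to the maximal wild-type response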;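 as to Span (best-fit): normalized to the maximal wild-type response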;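 as to Span: normalized to the maximal wild-type response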;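 as to Top (best-fit): normalized to the maximal wild-type response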
Format: cell-based
Parameters: Best-fit Top, cAMP inhibition / Span, cAMP inhibition / Best-fit Bottom / Best-fit Top / Best-fit Span / Bottom / Span (best-fit value), cAMP inhibition / Top (best-fit value), cAMP inhibition: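 normalized to the maximal wild-type response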
Conditions: for Span / Top: best-fit, runs 1-3
Protocol: The levels of the intracellular 3′, 5′-cyclic AMP (cAMP) were measured by the GloSensor cAMP assay (Promega) as described in the previous studies[28],[41] which has been widely used. The human full-length SSTRs and mutants were cloned into the pcDNA3.1+ vector with a HA signal sequence followed by a Flag tag at the N-terminus. HEK293 cells (ATCC, CRL-1573) were seeded into 6-well microplates at a density of 1.0 × 10^6 cells/well and cultured for 24 h at 37 °C with 5% CO2. Cells were then co-transfected with SSTR wild-type or mutants and GloSensor plasmids. After 24 h of transfection, the cells were dissociated with TrypLE™ Express Enzyme (1X) (Thermo Fisher Scientific) and collected by centrifugation at 500 × g for 5 min. Then the collected cells were suspended in Hank’s balanced salt solution [HBSS (Thermo Fisher Scientific)] supplemented with […] (YEASEN), and then the suspension cells were seeded into 96-well plates with 90 μl/well. After incubating at room temperature for 40 min, 5 μM forskolin and ligands diluted in HBSS were added to each well and the plates were incubated at room temperature for 15 min. […] were measured using the Synergy H1 microplate reader (BioTek) and the data presented are means of at least three independent experiments.

[1] = WT-1 (run 1 of each mutant's batch)

Chain of SSTR2 (P30874 whole entry): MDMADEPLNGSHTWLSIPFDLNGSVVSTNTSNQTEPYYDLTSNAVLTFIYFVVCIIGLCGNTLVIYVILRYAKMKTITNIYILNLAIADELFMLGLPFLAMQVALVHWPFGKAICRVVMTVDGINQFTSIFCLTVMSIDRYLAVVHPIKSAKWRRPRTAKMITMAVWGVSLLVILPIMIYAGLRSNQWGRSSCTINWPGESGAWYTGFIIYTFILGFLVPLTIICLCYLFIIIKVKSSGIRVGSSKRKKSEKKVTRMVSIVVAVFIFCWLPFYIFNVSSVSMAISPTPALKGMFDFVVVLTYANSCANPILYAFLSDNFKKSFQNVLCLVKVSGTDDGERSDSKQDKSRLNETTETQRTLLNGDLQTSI

## N#Cc1cccc(-c2ccc3ncc(-c4cc(F)cc(F)c4)c(N4CCC(N)CC4)c3c2)c1O [paltusotine]
EC50, Gi signaling, SSTR2 WT, n=6
  EC50: 1.88 ± 3.15 nM
EC50, WT-1, run paired with D295F
  EC50: 0.307 nM
EC50, WT-1, run paired with F294Y
  EC50: 0.307 nM
EC50, WT-1, run paired with I195M
  EC50: 1.09 nM
EC50, WT-1, run paired with T194H
  EC50: 1.16 nM
EC50, WT-1, run paired with V103N
  EC50: 2.1 nM
EC50, WT-1, run paired with Y205R
  EC50: 0.537 nM
EC50, WT-2, run paired with D295F
  EC50: 0.501 nM
EC50, WT-2, run paired with F294Y
  EC50: 0.501 nM
EC50, WT-2, run paired with I195M
  EC50: 2.02 nM
EC50, WT-2, run paired with T194H
  EC50: 1.6 nM
EC50, WT-2, run paired with V103N
  EC50: 1.35 nM
EC50, WT-2, run paired with Y205R
  EC50: 0.536 nM
EC50, WT-3, run paired with D295F
  EC50: 1.09 nM
EC50, WT-3, run paired with F294Y
  EC50: 1.16 nM
EC50, WT-3, run paired with T194H
  EC50: 1.35 nM
EC50, WT-3, run paired with V103N
  EC50: 1.08 nM
EC50, WT-3, run paired with Y205R
  EC50: 2.1 nM
EC50, cAMP inhibition best-fit, D122A set, WT-1
  EC50: 2.35 nM
EC50, cAMP inhibition best-fit, D122A set, WT-2
  EC50: 2.66 nM
EC50, cAMP inhibition best-fit, D122A set, WT-3
  EC50: 0.501 nM
EC50, cAMP inhibition best-fit, F127A set, WT-1
  EC50: 1.55 nM
EC50, cAMP inhibition best-fit, F127A set, WT-2
  EC50: 1.16 nM
EC50, cAMP inhibition best-fit, F127A set, WT-3
  EC50: 0.298 nM
EC50, cAMP inhibition best-fit, I130A set, WT-1
  EC50: 0.295 nM
EC50, cAMP inhibition best-fit, I130A set, WT-2
  EC50: 0.321 nM
EC50, cAMP inhibition best-fit, I130A set, WT-3
  EC50: 1.13 nM
EC50, cAMP inhibition best-fit, Q102A set, WT-2
  EC50: 1.19 nM
EC50, cAMP inhibition best-fit, Q102A set, WT-3
  EC50: 1 nM
EC50, cAMP inhibition best-fit, Q126A set, WT-1
  EC50: 0.777 nM
EC50, cAMP inhibition best-fit, Q126A set, WT-2
  EC50: 1.58 nM
EC50, cAMP inhibition best-fit, Q126A set, WT-3
  EC50: 0.845 nM
EC50, cAMP inhibition best-fit, V103A set, WT-1
  EC50: 1.58 nM
EC50, cAMP inhibition best-fit, V103A set, WT-2
  EC50: 0.605 nM
EC50, cAMP inhibition best-fit, V103A set, WT-3
  EC50: 1.19 nM
EC50, subtype selectivity series, Suppl. Tables 4/5, SSTR2-WT, n=6
  EC50: 2.08 ± 1.39 nM
F208A panel, WT-1 (run 1)
  Bottom (best-fit value): -1.411
  LogEC50 (best-fit value): -9.3
  Span (best-fit value): 105.2
  Top (best-fit value): 103.8
F208A panel, WT-2 (run 2)
  Bottom (best-fit value): 4.431
  LogEC50 (best-fit value): -8.26
  Span (best-fit value): 92.56
  Top (best-fit value): 96.99
F208A panel, WT-3 (run 3)
  Bottom (best-fit value): 0.6589
  LogEC50 (best-fit value): -8.524
  Span (best-fit value): 92.36
  Top (best-fit value): 93.02
F265A panel, WT-1 (run 1)
  Bottom (best-fit value): -3.016
  LogEC50 (best-fit value): -8.949
  Span (best-fit value): 106.8
  Top (best-fit value): 103.7
F265A panel, WT-2 (run 2)
  Bottom (best-fit value): -3.466
  LogEC50 (best-fit value): -9.53
  Span (best-fit value): 116.5
  Top (best-fit value): 113
F265A panel, WT-3 (run 3)
  Bottom (best-fit value): -6.932
  LogEC50 (best-fit value): -9.494
  Span (best-fit value): 126.2
  Top (best-fit value): 119.3
F272A panel, WT-1 (run 1)
  Bottom (best-fit value): -5.769
  Top (best-fit value): 108
F272A panel, WT-2 (run 2)
  Bottom (best-fit value): -4.038
  Top (best-fit value): 107.8
F272A panel, WT-3 (run 3)
  Bottom (best-fit value): -0.5501
  Top (best-fit value): 106.1
Gi signaling EC50, SSTR2 WT
  Fold of WT: 1
HEK293
  Emax: 100%
P220A panel, WT-1 (run 1)
  Bottom (best-fit value): -3.466
  LogEC50 (best-fit value): -9.53
  Span (best-fit value): 116.5
  Top (best-fit value): 113
P220A panel, WT-2 (run 2)
  Bottom (best-fit value): -6.932
  LogEC50 (best-fit value): -9.494
  Span (best-fit value): 126.2
  Top (best-fit value): 119.3
P220A panel, WT-3 (run 3)
  Bottom (best-fit value): -3.016
  LogEC50 (best-fit value): -8.949
  Span (best-fit value): 106.8
  Top (best-fit value): 103.7
SSTR2, Fig. 1
  Activation potency level: nanomolar level
Suppl. Tables 4/5, SSTR2-WT
  Fold of WT: 1.00
W269A panel, WT-1 (run 1)
  Bottom (best-fit value): -3.016
  LogEC50 (best-fit value): -8.949
  Span (best-fit value): 106.8
  Top (best-fit value): 103.7
W269A panel, WT-2 (run 2)
  Bottom (best-fit value): -3.466
  LogEC50 (best-fit value): -9.53
  Span (best-fit value): 116.5
  Top (best-fit value): 113
W269A panel, WT-3 (run 3)
  Bottom (best-fit value): -6.932
  LogEC50 (best-fit value): -9.494
  Span (best-fit value): 126.2
  Top (best-fit value): 119.3
WT (I195A set)
  Span: 93.39 and 87.67 and 121.7
  Top: 108 and 99.03 and 119.3
WT (I195A set), run 1, best-fit
  LogEC50: -8.654
WT (I195A set), run 2, best-fit
  LogEC50: -8.922
WT (I195A set), run 3, best-fit
  LogEC50: -8.801
WT (I284A set)
  Span: 107.7 and 93.27 and 111.5
  Top: 108.3 and 104.9 and 129.6
WT (I284A set), run 1, best-fit
  LogEC50: -8.585
WT (I284A set), run 2, best-fit
  LogEC50: -8.622
WT (I284A set), run 3, best-fit
  LogEC50: -8.252
WT (L99A set)
  Span: 106.7 and 113.8 and 111.8
  Top: 106.1 and 108 and 107.8
WT (L99A set), run 1, best-fit
  LogEC50: -8.998
WT (L99A set), run 2, best-fit
  LogEC50: -8.575
WT (L99A set), run 3, best-fit
  LogEC50: -8.63
WT (T194A set)
  Span: 106.7 and 111.2 and 111
  Top: 106.1 and 108.7 and 106.2
WT (T194A set), run 1, best-fit
  LogEC50: -8.998
WT (T194A set), run 2, best-fit
  LogEC50: -8.908
WT (T194A set), run 3, best-fit
  LogEC50: -8.937
WT (Y50A set)
  Span: 113.7 and 115.8 and 115.1
  Top: 113.6 and 115.8 and 115.7
WT (Y50A set), run 1, best-fit
  LogEC50: -8.071
WT (Y50A set), run 2, best-fit
  LogEC50: -8.114
WT (Y50A set), run 3, best-fit
  LogEC50: -8.128
[1]
  Span (best-fit value), cAMP inhibition: 113.8 and 111.2 and 111.8 and 104.8 and 106.7
  Top (best-fit value), cAMP inhibition: 108.7 and 107.8 and 108 and 105.3 and 106.1
WT-1, run paired with D295F
  Bottom (best-fit): 3.567
  LogEC50: -9.512
  Span (best-fit): 103.1
  Top (best-fit): 106.7
WT-1, run paired with F294Y
  Bottom (best-fit): 3.567
  LogEC50: -9.512
  Span (best-fit): 103.1
  Top (best-fit): 106.7
WT-1, run paired with I195M
  Bottom (best-fit): 12.84
  LogEC50: -8.964
  Span (best-fit): 85.7
  Top (best-fit): 98.54
WT-1, run paired with T194H
  Bottom (best-fit): -4.818
  LogEC50: -8.937
